In patent US8889874B2, “Imidazolone-chalcone derivatives as potential anticancer agent and process for the preparation thereof” (Council of Scientific and Industrial Research, priority 2010, dated 2014):
Like-named read-outs stand apart in the source and are kept apart here.

Legend:
Type in all cases: cell-based, human
[1] = test system: Prostate cancer cell lines; experiment: NCI anticancer screen, SRB assay, panel summary
Method in brief: (§1)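 Sulforhodamine B protein assay read cell growth after 48 h of continuous compound exposure. Dose-response curves per cell line used at least five 10-fold-diluted concentrations, within a panel of fifty-three human lines from nine tumour types.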

Renal cancer cell lines = experiment: NCI anticancer screen, SRB assay, panel summary; conditions: Homo sapiens
Method in brief: as §1

[2] = test system: Leukemia cancer cell lines; experiment: NCI anticancer screen, SRB assay, panel summary; conditions: Homo sapiens
Method in brief: as §1

[3] = test system: Ovarian cancer cell lines; experiment: NCI anticancer screen, SRB assay, panel summary; conditions: Homo sapiens
Method in brief: as §1

Breast cancer cell lines = experiment: NCI anticancer screen, SRB assay, panel summary; conditions: Homo sapiens
Method in brief: as §1

[4] = test system: Melanoma cancer cell lines; experiment: NCI anticancer screen, SRB assay, panel summary; conditions: for GI50: Homo sapiens
Method in brief: as §1

CNS cancer cell lines = experiment: NCI anticancer screen, SRB assay, panel summary; conditions: for GI50: Homo sapiens
Method in brief: as §1

[5] = test system: Non-small cell lung cancer cell lines; experiment: NCI anticancer screen, SRB assay, panel summary; conditions: Homo sapiens
Method in brief: as §1

Colon cancer cell lines = experiment: NCI anticancer screen, SRB assay, panel summary; conditions: for GI50: Homo sapiens
Method in brief: as §1

786-0 (renal) = experiment: NCI anticancer screen, SRB assay, 48 h; conditions: Homo sapiens
Method in brief: as §1

PC-3 (prostate) = experiment: NCI anticancer screen, SRB assay, 48 h; conditions: Homo sapiens
Method in brief: as §1

SF-268 (CNS) = experiment: NCI anticancer screen, SRB assay, 48 h; conditions: Homo sapiens
Method in brief: as §1

SK-MEL-5 (melanoma) = experiment: NCI anticancer screen, SRB assay, 48 h; conditions: Homo sapiens
Method in brief: as §1

HCT-15 (colon) = experiment: NCI anticancer screen, SRB assay, 48 h; conditions: Homo sapiens
Method in brief: as §1

U251 (CNS) = experiment: NCI anticancer screen, SRB assay, 48 h; conditions: Homo sapiens
Method in brief: as §1

MDA-MB-435 (melanoma) = experiment: NCI anticancer screen, SRB assay, 48 h; conditions: Homo sapiens
Method in brief: as §1

HS 578T (breast) = experiment: NCI anticancer screen, SRB assay, 48 h; conditions: Homo sapiens
Method in brief: as §1

A498 (renal) = experiment: NCI anticancer screen, SRB assay, 48 h; conditions: Homo sapiens
Method in brief: as §1

[6] = test system: NCI-H460 (non-small cell lung); experiment: NCI anticancer screen, SRB assay, 48 h; conditions: Homo sapiens
Method in brief: as §1

OVCAR-5 (ovarian) = experiment: NCI anticancer screen, SRB assay, 48 h; conditions: Homo sapiens
Method in brief: as §1

SN12C (renal) = experiment: NCI anticancer screen, SRB assay, 48 h; conditions: Homo sapiens, SN12C
Method in brief: as §1

HCC-2998 (colon) = experiment: NCI anticancer screen, SRB assay, 48 h; conditions: Homo sapiens
Method in brief: as §1

[7] = test system: HOP-92 (non-small cell lung); experiment: NCI anticancer screen, SRB assay, 48 h; conditions: Homo sapiens
Method in brief: as §1

TK-10 (renal) = experiment: NCI anticancer screen, SRB assay, 48 h; conditions: Homo sapiens
Method in brief: as §1

MDA-MB-231/ATCC (breast) = experiment: NCI anticancer screen, SRB assay, 48 h; conditions: Homo sapiens
Method in brief: as §1

LOX IMVI (melanoma) = experiment: NCI anticancer screen, SRB assay, 48 h; conditions: Homo sapiens
Method in brief: as §1

[8] = test system: K-562 (leukemia cell line); experiment: NCI anticancer screen, SRB assay, 48 h; conditions: Homo sapiens
Method in brief: as §1

SF-295 (CNS) = experiment: NCI anticancer screen, SRB assay, 48 h; conditions: Homo sapiens
Method in brief: as §1

SW-620 (colon) = experiment: NCI anticancer screen, SRB assay, 48 h; conditions: Homo sapiens
Method in brief: as §1

BT-549 (breast) = experiment: NCI anticancer screen, SRB assay, 48 h; conditions: Homo sapiens
Method in brief: as §1

SF-539 (CNS) = experiment: NCI anticancer screen, SRB assay, 48 h; conditions: Homo sapiens
Method in brief: as §1

MCF7 (breast) = experiment: NCI anticancer screen, SRB assay, 48 h; conditions: Homo sapiens
Method in brief: as §1

[9] = 48 h exposure, SRB, read-out: GI50
[10] = read-out: pGI50 (-log of molar concentration causing 50% inhibition of net cell growth) (converted)

COc1cc(/C=C/C(=O)c2cccc(-n3cc(-c4ccc(Cl)cc4)[nH]c3=O)c2)ccc1O [3f, 4-(4-chlorophenyl)-1-3-[(E)-3-(4-hydroxy-3-methoxyphenyl)-2-propenoyl]phenyl-2,3-dihydro-1H-2-imidazolone] was tested, and the GI50 ([1]; Homo sapiens, log of concentration in mol/L causing 50% inhibition of net cell growth, read-out: mean graph midpoint (MG_MID) of Log10 GI50 (converted)) was 1.95 µM, the LC50 ([1]; Homo sapiens, log of concentration leading to 50% net cell death, read-out: mean graph midpoint (MG_MID) of Log10 LC50 (converted)) was 66.1 µM and the “mean graph midpoint (MG_MID) of Log10 TGI” value ([1]; log of concentration resulting in total inhibition of net cell growth) was 5.20. It also gave a GI50 (Renal cancer cell lines; Renal panel, log of concentration in mol/L causing 50% inhibition of net cell growth, read-out: mean graph midpoint (MG_MID) of Log10 GI50 (converted)) of 2.95 µM, an LC50 (Renal cancer cell lines; Renal panel, log of concentration leading to 50% net cell death, read-out: mean graph midpoint (MG_MID) of Log10 LC50 (converted)) of 63.1 µM and a GI50 (Renal cancer cell lines; eight renal cancer cell lines, exposure at least 48 hrs, read-out: GI50, range over the panel) of 1.67 to 6.4 µM. It also gave a GI50 ([2]; Leukemia panel, log of concentration in mol/L causing 50% inhibition of net cell growth, read-out: mean graph midpoint (MG_MID) of Log10 GI50 (converted)) of 1.38 µM, an LC50 ([2]; Leukemia panel, log of concentration leading to 50% net cell death, read-out: mean graph midpoint (MG_MID) of Log10 LC50 (converted)) of 55 µM and a GI50 ([2]; two leukemia cancer cell lines (RPMI-8226 and K-562), exposure at least 48 hrs, read-out: GI50, range over the panel) of 1.33 to 1.42 µM. The GI50 ([3]; Ovarian panel, log of concentration in mol/L causing 50% inhibition of net cell growth, read-out: mean graph midpoint (MG_MID) of Log10 GI50 (converted)) was 2.75 µM, the LC50 ([3]; Ovarian panel, log of concentration leading to 50% net cell death, read-out: mean graph midpoint (MG_MID) of Log10 LC50 (converted)) was 43.7 µM and the GI50 ([3]; six ovarian cancer cell lines, exposure at least 48 hrs, read-out: GI50, range over the panel) was 1.56 to 4.64 µM. The GI50 (Breast cancer cell lines; Breast panel, log of concentration in mol/L causing 50% inhibition of net cell growth, read-out: mean graph midpoint (MG_MID) of Log10 GI50 (converted)) was 3.24 µM, the LC50 (Breast cancer cell lines; Breast panel, log of concentration leading to 50% net cell death, read-out: mean graph midpoint (MG_MID) of Log10 LC50 (converted)) was 95.5 µM and the GI50 (Breast cancer cell lines; five breast cancer cell lines, exposure at least 48 hrs, read-out: GI50, range over the panel) was 2.3 to 4.67 µM. For the same molecule, the GI50 ([4]; Melanoma panel, log of concentration in mol/L causing 50% inhibition of net cell growth, read-out: mean graph midpoint (MG_MID) of Log10 GI50 (converted)) was 2.82 µM, the GI50 ([4]; nine melanoma cancer cell lines, exposure at least 48 hrs, read-out: GI50, range over the panel) was 1.63 to 8.69 µM and the “mean graph midpoint (MG_MID) of Log10 LC50” value ([4]; Melanoma panel, log of concentration leading to 50% net cell death) was 4.32. The “mean graph midpoint (MG_MID) of Log10 LC50” value (CNS cancer cell lines; CNS panel, log of concentration leading to 50% net cell death) was 4.29, the GI50 (CNS cancer cell lines; CNS panel, log of concentration in mol/L causing 50% inhibition of net cell growth, read-out: mean graph midpoint (MG_MID) of Log10 GI50 (converted)) was 3.16 µM and the GI50 (CNS cancer cell lines; six CNS cancer cell lines, exposure at least 48 hrs, read-out: GI50, range over the panel) was 1.78 to 10.5 µM. It also gave a GI50 ([5]; Non-small cell lung panel, log of concentration in mol/L causing 50% inhibition of net cell growth, read-out: mean graph midpoint (MG_MID) of Log10 GI50 (converted)) of 3.55 µM, an LC50 ([5]; Non-small cell lung panel, log of concentration leading to 50% net cell death, read-out: mean graph midpoint (MG_MID) of Log10 LC50 (converted)) of 85.1 µM and a GI50 ([5]; nine non-small cell lung cancer cell lines, exposure at least 48 hrs, read-out: GI50, range over the panel) of 1.26 to 9.61 µM. The “mean graph midpoint (MG_MID) of Log10 LC50” value (Colon cancer cell lines; Colon panel, log of concentration leading to 50% net cell death) was 4.53, the GI50 (Colon cancer cell lines; Colon panel, log of concentration in mol/L causing 50% inhibition of net cell growth, read-out: mean graph midpoint (MG_MID) of Log10 GI50 (converted)) was 2.04 µM and the GI50 (Colon cancer cell lines; seven colon cancer cell lines, exposure at least 48 hrs, read-out: GI50, range over the panel) was 1.46 to 3.4 µM. For the same molecule, the GI50 (786-0 (renal); [9]) was 2.07 µM, the GI50 (786-0 (renal); [10]) was 2.09 µM and the GI50 (PC-3 (prostate); PC-3, read-out: pGI50 (-log of molar concentration causing 50% inhibition of net cell growth) (converted)) was 1.95 µM. For the same molecule, the GI50 (PC-3 (prostate); one prostate cancer cell line (PC-3), exposure at least 48 hrs, read-out: GI50) was 1.95 µM, the GI50 (SF-268 (CNS); [9]) was 2.5 µM and the GI50 (SF-268 (CNS); [10]) was 2.51 µM. It also gave a GI50 (SK-MEL-5 (melanoma); [9]) of 1.8 µM, a GI50 (SK-MEL-5 (melanoma); [10]) of 1.82 µM and a GI50 (HCT-15 (colon); [9]) of 1.8 µM. For the same molecule, the GI50 (HCT-15 (colon); [10]) was 1.82 µM, the GI50 (U251 (CNS); U-251, 48 h exposure, SRB, read-out: GI50) was 2.23 µM and the GI50 (U251 (CNS); U-251, read-out: pGI50 (-log of molar concentration causing 50% inhibition of net cell growth) (converted)) was 2.24 µM. The GI50 (MDA-MB-435 (melanoma); [9]) was 2.25 µM, the GI50 (MDA-MB-435 (melanoma); [10]) was 2.24 µM and the GI50 (HS 578T (breast); [9]) was 4.67 µM. It also gave a GI50 (HS 578T (breast); [10]) of 4.68 µM, a GI50 (A498 (renal); [9]) of 2.82 µM and a GI50 (A498 (renal); [10]) of 2.82 µM. The GI50 [6, 9] was 3.9 µM, the GI50 [6, 10] was 3.89 µM and the GI50 (OVCAR-5 (ovarian); [9]) was 2 µM. It also gave a GI50 (OVCAR-5 (ovarian); [10]) of 2 µM, a GI50 (SN12C (renal); SN 12C, read-out: pGI50 (-log of molar concentration causing 50% inhibition of net cell growth) (converted)) of 2.88 µM and a GI50 (SN12C (renal); [9]) of 2.87 µM. For the same molecule, the GI50 (HCC-2998 (colon); [9]) was 1.85 µM, the GI50 (HCC-2998 (colon); [10]) was 1.86 µM and the GI50 [7, 9] was 1.26 µM. For the same molecule, the GI50 [7, 10] was 1.26 µM, the GI50 (TK-10 (renal); [9]) was 4.67 µM and the GI50 (TK-10 (renal); [10]) was 4.68 µM. It also gave a GI50 (MDA-MB-231/ATCC (breast); [9]) of 3.87 µM, a GI50 (MDA-MB-231/ATCC (breast); [10]) of 3.89 µM and a GI50 (LOX IMVI (melanoma); [9]) of 1.63 µM. It also gave a GI50 (LOX IMVI (melanoma); [10]) of 1.62 µM, a GI50 ([8]; K562, 48 h exposure, SRB, read-out: GI50) of 1.42 µM and a GI50 ([8]; K562, read-out: pGI50 (-log of molar concentration causing 50% inhibition of net cell growth) (converted)) of 1.41 µM. The GI50 (SF-295 (CNS); [9]) was 10.5 µM, the GI50 (SF-295 (CNS); [10]) was 10.5 µM and the GI50 (SW-620 (colon); [9]) was 2 µM. It also gave a GI50 (SW-620 (colon); [10]) of 2 µM, a GI50 (BT-549 (breast); [9]) of 2.52 µM and a GI50 (BT-549 (breast); [10]) of 2.51 µM. For the same molecule, the GI50 (SF-539 (CNS); [9]) was 1.78 µM, the GI50 (SF-539 (CNS); [10]) was 1.78 µM and the GI50 (MCF7 (breast); [9]) was 2.3 µM. For the same molecule, the GI50 (MCF7 (breast); [10]) was 2.29 µM.
